In the NIST ThermoML archive (doi:10.1016/j.jct.2012.11.016):
± gives the expanded uncertainty stated by the source.

How the values were obtained:
[1] = 101.33 kPa, Liquid; for viscosity: Capillary tube (Ostwald / Ubbelohde) method; for mass density: Vibrating tube method
[2] = refractive index (Na D-line) (dimensionless); details: 101.33 kPa, Liquid, Standard Abbe refractometry

| viscosity ([1]; 298.15 K) [mPa·s] | viscosity ([1]; 303.15 K) [mPa·s] | mass density ([1]; 303.15 K) [kg/m3] | viscosity ([1]; 308.15 K) [mPa·s] | mass density ([1]; 308.15 K) [kg/m3] | refractive index ([2]; 298.15 K) | refractive index ([2]; 303.15 K) | refractive index ([2]; 308.15 K) | Structure (SMILES) | mass density ([1]; 298.15 K) [kg/m3] |
| --- | --- | --- | --- | --- | --- | --- | --- | --- | --- |
| 16.87 ± 1.7 | 13.59 ± 1.4 | 1106 ± 1.1 | 11.34 ± 1.1 |  |  |  |  | OCCO [1,2-ethanediol] |  |
| 0.806 ± 0.081 | 0.728 ± 0.073 | 995.4 ± 0.3 | 0.661 ± 0.066 | 993.7 ± 0.3 | 1.3326 ± 0.0005 | 1.3321 ± 0.0005 | 1.3315 ± 0.0005 | O [water] |  |
| 41.36 ± 4.2 | 32.78 ± 3.3 | 1046.2 ± 0.9 | 27 ± 2.7 | 1043.1 ± 0.9 |  |  |  | OCCCO [propan-1,3-diol] | 1049.6 ± 0.9 |

| Structure (SMILES) | viscosity ([1]; 298.15 K) [mPa·s] | viscosity ([1]; 303.15 K) [mPa·s] | mass density ([1]; 303.15 K) [kg/m3] | viscosity ([1]; 308.15 K) [mPa·s] | mass density ([1]; 308.15 K) [kg/m3] | refractive index ([2]; 298.15 K) | refractive index ([2]; 303.15 K) | refractive index ([2]; 308.15 K) | mass density ([1]; 298.15 K) [kg/m3] |
| --- | --- | --- | --- | --- | --- | --- | --- | --- | --- |
| OCCCCO [1,4-butanediol] | 72.33 ± 7.3 | 56.43 ± 5.7 | 1010.6 ± 0.9 | 44.11 ± 4.5 | 1007.5 ± 0.9 |  |  |  | 1013.9 ± 0.9 |
